Source: patent publication US8716012B2, “Alpha thymosin peptides as vaccine enhancers” (priority 2009, dated 2014)

Assays:
[1] = Safety and tolerability observations in ferrets; type: in vivo; details: TA1 0.285 or 0.570 mg/kg/dose s.c.
Protocol: The vaccine (either Agrippal influPozzi seasonal vaccine, non-adjuvanted, or Fluad, MF-59 adjuvanted) was administered via intramuscular injection to the right leg at a full human dose of 0.5 mL. TA1 (0.285 or 0.570 mg/kg/dose) was administered by the subcutaneous route at a dose volume that, using a scaling factor for ferret/human dosing, corresponding to approximate human doses of […]. Animals were observed twice daily for mortality, general health, and both local and systemic signs of toxicity and illness as well as behavior under the responsibility of a professional veterinarian. Body weights were recorded prior to dosing only.

[2] = CD-1 mice; TA1 0.3, 0.6 or 1.2 mg/kg/dose i.p. with Fluvirin
[3] = cited from earlier work
[4] = more than 3,000 patients (adults, elderly, children); cited from earlier work
[5] = doses as high as 800 times the recommended human dose; cited from earlier work

For “Ac-SDAAVDTSSEITTKDLKEKKEVVEEAEN-OH [TA1]”, the cage-side observations [1] was “no cage-side observations were noted”, the safety and tolerability [1] was “safe and well-tolerated” and the “clinical/cageside observations or body weight effects” value [2] was “no test article-related clinical/cageside observations or body weight effects”. The survival [2] was “All animals survived until scheduled termination”, the Peak plasma levels ([3]; after injection of 3.2 mg of TA1 (about 40 μg/kg)) was “approximately 100 ng/ml” and the “half-life of TA1 in the circulation” value ([3]; in vivo) was “about 2 hours”. For the same substance, the plasma half-life ([3]; subcutaneously injected TA1) was “about two”, the “drug-related side effects in clinical studies” value [4] was “virtually no drug-related side effects” and the “adverse clinical signs in animal studies” value [5] was “no evidence of adverse clinical signs”.
